# Test results from ChEMBL document CHEMBL4184084, “Discovery of Mcl-1 inhibitors based on a thiazolidine-2,4-dione scaffold” (Bioorg Med Chem Lett, 2018).
# Biological target: Bcl-2-like protein 1 (Homo sapiens, UniProt Q07817)
# Test: Inhibition of FITC-labeled Bak-BH3 peptide binding to Bcl-XL (2 to 212 residues) (unknown origin) by fluorescence polarization assay
# Sequence of Bcl-2-like protein 1 (Q07817 whole entry, the tested form may be a part): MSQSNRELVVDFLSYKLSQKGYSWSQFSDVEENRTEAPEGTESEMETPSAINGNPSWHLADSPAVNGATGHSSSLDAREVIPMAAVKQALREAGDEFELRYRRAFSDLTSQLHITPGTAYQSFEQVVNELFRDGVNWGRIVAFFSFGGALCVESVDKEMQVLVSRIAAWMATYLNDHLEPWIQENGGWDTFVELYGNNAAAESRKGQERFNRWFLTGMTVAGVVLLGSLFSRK
row,Ki [µM],Structure (SMILES)
1,0.09,Cc1cc(Oc2ccc(/C=C3\SC(=O)N([C@@H](Cc4ccccc4)C(=O)O)C3=O)cc2)cc(C)c1Cl

# Biological target: Induced myeloid leukemia cell differentiation protein Mcl-1 (Homo sapiens, UniProt Q07820)
# Test: Inhibition of FITC-labeled Bak-BH3 peptide binding to MCL1 (172 to 371 residues) (unknown origin) by fluorescence polarization competition assay
# Sequence of Induced myeloid leukemia cell differentiation protein Mcl-1 (Q07820 whole entry, the tested form may be a part): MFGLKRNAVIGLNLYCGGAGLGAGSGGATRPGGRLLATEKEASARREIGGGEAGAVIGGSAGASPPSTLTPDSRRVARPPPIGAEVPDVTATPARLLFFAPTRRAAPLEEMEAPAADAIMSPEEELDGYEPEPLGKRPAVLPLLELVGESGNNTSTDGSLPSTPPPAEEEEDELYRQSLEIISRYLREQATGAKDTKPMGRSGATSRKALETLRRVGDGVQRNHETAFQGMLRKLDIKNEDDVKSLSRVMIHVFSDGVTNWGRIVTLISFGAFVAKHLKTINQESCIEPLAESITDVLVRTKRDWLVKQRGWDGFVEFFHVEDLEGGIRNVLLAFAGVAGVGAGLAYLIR
row,Structure (SMILES),Ki [µM]
1,Cc1cc(Oc2ccc(/C=C3\SC(=O)N([C@@H](Cc4ccccc4)C(=O)O)C3=O)cc2)cc(C)c1Cl,0.155
2,CC(C)C[C@@H](C(=O)O)N1C(=O)S/C(=C\c2cccc(Br)c2)C1=O,2.13
3,Cc1cc(Oc2ccc(CC3SC(=O)N(CC(=O)O)C3=O)cc2)cc(C)c1Cl (configuration not stated),10.2
4,CC(C)C[C@@H](C(=O)O)N1C(=O)S/C(=C\c2ccc(O)cc2)C1=O,> 100
5,O=C(O)[C@H](Cc1ccccc1)N1C(=O)S/C(=C\c2cccc(Br)c2)C1=O,0.29
6,Cc1cc(Oc2ccc(/C=C3\SC(=O)N([C@H](Cc4ccccc4)C(=O)O)C3=O)cc2)cc(C)c1Cl,0.878
7,Cc1cc(Oc2ccc(/C=C3\SC(=O)NC3=O)cc2)cc(C)c1Cl,> 100
8,Cc1cc(Oc2ccc(/C=C3\SC(=O)N([C@@H](CC(C)C)C(N)=O)C3=O)cc2)cc(C)c1Cl,> 100
9,CC(C)C[C@@H](C(=O)O)N1C(=O)S/C(=C\c2ccc(Br)cc2)C1=O,8.78
10,COC(=O)[C@H](CC(C)C)N1C(=O)S/C(=C\c2ccc(Oc3cc(C)c(Cl)c(C)c3)cc2)C1=O,> 100
11,CC(C)C[C@@H](C(=O)O)N1C(=O)S/C(=C\c2ccc(C(C)(C)C)cc2)C1=O,2.22
12,CC(C)C[C@@H](C(=O)O)N1C(=O)S/C(=C\c2ccc(Oc3ccccc3)cc2)C1=O,12.7
13,CC(C)(C)c1ccc(/C=C2\SC(=O)N([C@@H](Cc3ccccc3)C(=O)O)C2=O)cc1,0.845
14,CC(C)C[C@@H](C(=O)O)N1C(=O)S/C(=C\c2ccccc2)C1=O,> 100
15,Cc1cc(Oc2ccc(/C=C3\SC(=O)N([C@@H](CC(C)C)C(=O)O)C3=O)cc2Br)cc(C)c1Cl,0.791

# Further lines, results first:
row,Ki [µM],Structure (SMILES)
1,0.419,Cc1cc(Oc2ccc(/C=C3\SC(=O)N([C@@H](CC(C)C)C(=O)O)C3=O)cc2)cc(C)c1Cl
2,1.94,Cc1cc(Oc2ccc(/C=C3\SC(=O)N([C@@H](C)C(=O)O)C3=O)cc2)cc(C)c1Cl
3,1,Cc1cc(Oc2ccc(/C=C3\SC(=O)N([C@H](CC(C)C)C(=O)O)C3=O)cc2)cc(C)c1Cl
4,2.78,Cc1cc(Oc2ccc(/C=C3\SC(=O)N([C@H](C)C(=O)O)C3=O)cc2)cc(C)c1Cl
5,1.19,Cc1cc(Oc2ccc(/C=C3\SC(=O)N([C@H](C(=O)O)C(C)C)C3=O)cc2)cc(C)c1Cl
6,2.34,Cc1cc(Oc2ccc(/C=C3\SC(=O)N(CC(=O)O)C3=O)cc2)cc(C)c1Cl
